# Assay results taken from patent US10145848B2, “Small-molecule hydrophobic tagging of fusion proteins and induced degradation of same” (YALE UNIVERSITY, priority 2010, dated 2018).
# Entries after “also recorded” stand apart in the source; their conditions may differ.
# Assays:
# [1] = biological target: T1, EGFP-HaloTag (Rhodococcus rhodochrous, UniProt P0A3G2, C176G/H272F/K175M/Y273L); experiment: Flow cytometry of intracellular GFP fluorescence in HeLa cells expressing EGFP-HaloTag; assay type: cell-based; settings: 1 μM, 24 hours
# T1 construct: The HaloTag protein was obtained from pHT2 vector (Promega); expressed in transfected cells
# Protocol: Stable HeLa cells were raised by cotransfection of pCS2/EGFP-HaloTag and p-Puro containing the puromycin resistance gene. A clonal population of cells expressing EGFP-HaloTag was isolated. These cells were treated with vehicle or 1 μM HyT13 for 24 hours, washed with PBS and trypsinized. The cells were resuspended in FBS-free DMEM and the intracellular GFP level was measured by FACSCalibur (BD Biosciences).
# (§1) As the luciferase assay relied on the loss-of-activity of the luciferase-HaloTag fusion protein, we wanted to determine whether the decrease in luciferase activity resulted from the degradation of the entire fusion protein or perhaps simply inhibition of luciferase activity. We generated a stable Flp-In 293 cell line with a single integration site containing HA-EGFP-HaloTag fusion protein, and employed this cell line to perform kinetic studies with HyT13. […] Consistent with our previous observations, treatment of these cells with 1 μM of HyT13 for 24 hours reduced the mean fluorescence intensity of cells almost 7-fold. Together, these findings provide the first experimental evidence that hydrophobic tagging represents a viable strategy for the control of protein levels.
# [2] = system: HEK293 or HeLa cells; experiment: Cell viability with Resazurin (alamarBlue); assay type: cell-based; settings: up to 20 μM, 24 hours
# Protocol: HEK293 or HeLa cells were treated with indicated concentrations of HyT13 for 24 hours. The oxidation-reduction indicator Resazurin (alamarBlue, Invitrogen) was employed to determine cell viability.
# [3] = Maximum tolerated dose experiment / weight gain in nude mice; assay type: in vivo
# Excerpt: Nude mice were daily IP injected with indicated concentrations of HyT13 and were monitored for weight gain during the 14-day experiment. Shown is the percent weight gained during the 14-day period for each treatment group ±SEM. Each treatment group consisted of 7 mice.
# To examine whether the HaloTag:HyT13 based system could be used in mouse models to relieve the H-RasG12V-driven tumor burden, we first evaluated the pharmacokinetics of HyT13. We performed a maximum tolerated dose experiment with HyT13 in nude mice at doses up to 100 mg/kg over a 14-day treatment regimen. […] Next, we sought to determine the serum bioavailability of HyT13 following injections. HyT13 was administered at 25 mg/kg by intraperitoneal (IP) injection into Swiss Webster mice and the serum was collected at 1 and 24 hours post-injection. At 1 hour post HyT13 administration the blood serum concentration was approximately 2 μM, and by 24 hours the HyT13 concentration had dropped to about 500 nM (FIG. 10). Based on our previous experiments in a cell culture setting, we speculated that these serum HyT13 concentrations would be sufficient to suppress H-RasG12V tumor formation in mice. To test this, we injected NIH-3T3 cells expressing HA-HaloTag-H-RasG12V into the flank of nude mice and on the same day started a daily treatment regimen of vehicle, 25 mg/kg HyT13 or 100 mg/kg HyT13. […]
# [4] = biological target: T2, HA-EGFP-HaloTag fusion protein (Rhodococcus rhodochrous, UniProt P0A3G2, C176G/H272F/K175M/Y273L); experiment: Immunoblotting of HA-EGFP-HaloTag in Flp-In 293 cells; assay type: cell-based
# T2 construct: The HaloTag protein was obtained from pHT2 vector (Promega); expressed in transfected cells
# Protocol: Flp-In 293 cells expressing HA-EGFP-HaloTag were treated with indicated concentrations of HyT13 for 24 hours. The lysates were probed with anti-HA and anti-β-actin antibodies, with β-actin serving as a loading control. Shown is quantification of three separate experiments, with error bars representing SEM.
# Flp-In 293 cells expressing HA-EGFP-HaloTag cells were treated for the indicated times with 1 μM HyT13 and the lysates were probed with anti-HA and anti-β-actin antibodies. The rightmost sample was treated with HyT13 for 24 hours, after which HyT13-free media was provided for 24 hours. Shown is quantification of three separate experiments, with error bars representing SEM.
# The indicated cells were washed twice with cold PBS and the cells were lysed in lysis buffer (1×PBS, 1% NP-40, 1 mM EDTA, 40 mM HEPES) with protease inhibitors. The lysates were cleared by centrifugation at 10,000 g for 5 min. The total protein concentration was determined by Bradford assay and 50 μg of protein was loaded onto an 8% Bis-Tris gel. To solubilize polyubiquitinated and aggregated proteins upon proteasome inhibition^42 samples generated for FIG. 12d were lysed with a SDS lysis buffer (1×PBS, 1% NP-40, 1% SDS, 1% sodium deoxycholate, 1 mM EDTA, 40 mM HEPES) with protease inhibitors. The blots were processed by standard procedures with indicated antibodies, and the band intensities were quantified by ImageJ.
# as §1
compound,measurement,setting,value
"O=C(CC12CC3CC(CC(C3)C1)C2)NCCOCCOCCCCCCCl [HyT13, 2-((3r,5r,7r)-Adamantan-1-yl)-N-(2-(2-((6-chlorohexyl)oxy)ethoxy)ethyl)acetamide]",reduction of mean fluorescence intensity,[1],~7 fold
same,cellular toxicity,[2],No cellular toxicity was observed; also recorded: lack of noticeable HyT13 cytotoxicity; also recorded: exhibits no toxicity
same,weight gain,[3]; mice injected daily at 100 mg/kg for 14 days,gained weight normally
same,toxicity / phenotype in mice,"[3]; nude mice, daily IP, doses up to 100 mg/kg, 14 days",No obvious phenotype was observed; also recorded: no observed toxicity
same,time to 50% degradation,[4]; 1 μM HyT13,≤ 1.5 h
same,time to full degradation effect,[4]; 1 μM HyT13,≤ 8 h
same,protein level after removal of compound,"[4]; 1 μM for 24 hours, then removed for 24 hours",recovered to half the starting levels
same,concentration at which maximal degradation effect is achieved,"[4]; 24 hours, immunoblotting",100 nM
same,DC50,"[4]; read-out: IC50 of fusion protein degradation, 24 hours, Flp-In 293 cells",21 nM
